# EP0195116A2, “Compound having antibacterial and antimycotic activities, preparation thereof and pharmaceutical compositions containing it” (ISTITUTO FARMACO BIOLOGICO RIPARI GERO S.r.l., priority 1985, dated 1986)
# Assays:
# Aspergillus fumigatus 1 = test: In vitro antimycotic activity (M.I.C.), scalar dilutions in liquid medium on Microtiter plates; assay type: cell-based
# Description: (§1) The method is that of scalar dilutions of the test compounds on Microtiter plates, in a 1:2 dilution ratio. Suspensions (titre: 10^4) of fungal sporae and Candida cells, grown on Sabouraud, and Dextrose Agar, were collected at the moment of use in the same medium used for the test and inoculated by means of a multi inoculation Microtiter device.
# (§2) M.I.C. values were determined by means of visual observation of fungal growth respectively after 24 hours (Candida albicans) and 48 and 72 hours (dermatophytes) incubation at 24°C.
# Aspergillus fumigatus 2 = test: as above; assay type: cell-based
# Description: as §1, §2
# Candida albicans 1 = test: as above; assay type: cell-based
# Description: as §1, §2
# Candida albicans 2 = test: as above; assay type: cell-based
# Description: as §1, §2
# Candida albicans 3 = test: as above; assay type: cell-based
# Description: as §1, §2
# [1] = system: Epidermophyton floccosum 1; test: as above; assay type: cell-based
# Description: as §1, §2
# Microsporum canis 1 = test: as above; assay type: cell-based
# Description: as §1, §2
# Microsporum canis 2 = test: as above; assay type: cell-based; settings: hospital isolate, 48 and 72 hours incubation at 24°C
# Description: as §1, §2
# [2] = system: Tricophyton mentagrophites 1; test: as above; assay type: cell-based
# Description: as §1, §2
# Escherichia coli OMI 16 = test: In vitro antibacterial activity (M.I.C.), scalar dilutions on agar plates; assay type: cell-based; settings: 18 hours incubation at 37°C
# Description: (§3) The method was that of scalar dilutions of the test products on agar plates, in a 1:2 dilution ratio. Bacterial suspensions grown overnight in Brain Heart Infusion DIFCO, were diluted 1/100 in new culture medium and inoculated by means of a multiinoculation device.
# (§4) M.I.C. values were determined by visual observation of bacterial growth, after 18 hours incubation, at 37°C.
# Escherichia coli OMI 17 = test: as above; assay type: cell-based; settings: 18 hours incubation at 37°C
# Description: as §3, §4
# [3] = system: Klebsiella pneumoniae ATCC 1003; test: as above; assay type: cell-based
# Description: as §3, §4
# Proteus vulgaris OMI 4 = test: as above; assay type: cell-based; settings: 18 hours incubation at 37°C
# Description: as §3, §4
# [4] = system: Pseudomonas aeruginosa OMI 1; test: as above; assay type: cell-based; settings: 18 hours incubation at 37°C
# Description: as §3, §4
# Sarcina lutea ATCC 9341 = test: as above; assay type: cell-based; settings: 18 hours incubation at 37°C
# Description: as §3, §4
# Staphylococcus aureus 35 = test: as above; assay type: cell-based
# Description: as §3, §4
# Staphylococcus aureus 38 = test: as above; assay type: cell-based
# Description: as §3, §4
# [5] = system: Staphylococcus aureus ATCC 9144; test: as above; assay type: cell-based
# Description: as §3, §4
# [6] = system: Streptococcus faecalis OMI 1; test: as above; assay type: cell-based; settings: 18 hours incubation at 37°C
# Description: as §3, §4
# [7] = system: Streptococcus faecalis OMI 2; test: as above; assay type: cell-based; settings: 18 hours incubation at 37°C
# Description: as §3, §4
# [8] = system: Streptococcus pyogenes A/1; test: as above; assay type: cell-based
# Description: as §3, §4
# Streptococcus pyogenes C = test: as above; assay type: cell-based
# Description: as §3, §4
# [9] = Pharmacokinetics in the rat by oral administration (serum and urinary concentrations by agar-well diffusion bioassay)
molecule,measurement,setting,value
"1-{[2-(2,4-dichlorophenyl)-2-(2,4-dichlorophenyl)methoxy]ethyl}-1-pivaloyloxymethyl-lH-imidazolium chloride [RG 024]",M.I.C.,"Aspergillus fumigatus 1; Aspergillus fumigatus 1, hospital isolate, liquid medium, incubation at 24°C",6.25 µg/mL
same,M.I.C.,"Aspergillus fumigatus 2; Aspergillus fumigatus 2, hospital isolate, liquid medium, incubation at 24°C",3.12 µg/mL
same,M.I.C.,"Candida albicans 1; Candida albicans 1, hospital isolate, liquid medium, 24 hours incubation at 24°C",1.56 µg/mL
same,M.I.C.,"Candida albicans 2; Candida albicans 2, hospital isolate, liquid medium, 24 hours incubation at 24°C",0.39 µg/mL
same,M.I.C.,"Candida albicans 3; Candida albicans 3, hospital isolate, liquid medium, 24 hours incubation at 24°C",0.78 µg/mL
same,M.I.C.,"[1]; Epidermophyton floccosum 1, hospital isolate, liquid medium, 48 and 72 hours incubation at 24°C",1.56 µg/mL
same,M.I.C.,"Microsporum canis 1; Microsporum canis 1, hospital isolate, liquid medium, 48 and 72 hours incubation at 24°C",12.5 µg/mL
same,M.I.C.,Microsporum canis 2,6.12 µg/mL
same,M.I.C.,"[2]; Tricophyton mentagrophites 1, hospital isolate, liquid medium, 48 and 72 hours incubation at 24°C",0.78 µg/mL
same,M.I.C.,Escherichia coli OMI 16; Isosensitest agar,6.25 µg/mL
same,M.I.C.,Escherichia coli OMI 17; Isosensitest agar,6.25 µg/mL
same,M.I.C.,"[3]; Klebsiella pneumoniae ATCC 1003, Isosensitest agar, 18 hours incubation at 37°C",12.5 µg/mL
same,M.I.C.,Proteus vulgaris OMI 4; Isosensitest agar,50 µg/mL
same,M.I.C.,[4]; Isosensitest agar,>200 µg/mL
same,M.I.C.,Sarcina lutea ATCC 9341; Isosensitest agar,0.19 µg/mL
same,M.I.C.,"Staphylococcus aureus 35; Staphylococcus aureus 35, Isosensitest agar, 18 hours incubation at 37°C",0.39 µg/mL
same,M.I.C.,"Staphylococcus aureus 38; Staphylococcus aureus 38, Isosensitest agar, 18 hours incubation at 37°C",0.19 µg/mL
same,M.I.C.,"[5]; Staphylococcus aureus ATCC 9144, Isosensitest agar, 18 hours incubation at 37°C",0.19 µg/mL
same,M.I.C.,[6]; Isosensitest agar,6.25 µg/mL
same,M.I.C.,[7]; Isosensitest agar,6.25 µg/mL
same,M.I.C.,"[8]; Streptococcus pyogenes A/1, Isosensitest agar, 18 hours incubation at 37°C",0.19 µg/mL
same,M.I.C.,"Streptococcus pyogenes C; Streptococcus pyogenes C, Isosensitest agar, 18 hours incubation at 37°C",0.39 µg/mL
Clc1ccc(COC(Cn2ccnc2)c2ccc(Cl)cc2Cl)c(Cl)c1 (stereo not drawn) [miconazole],MIC,"Aspergillus fumigatus 1; Aspergillus fumigatus, 1",6.25 µg/mL
same,MIC,"Aspergillus fumigatus 2; Aspergillus fumigatus, 2",6.25 µg/mL
same,MIC,"Candida albicans 1; Candida albicans, 1, 24 h",3.12 µg/mL
same,MIC,"Candida albicans 2; Candida albicans, 2, 24 h",1.56 µg/mL
same,MIC,"Candida albicans 3; Candida albicans, 3, 24 h",1.56 µg/mL
same,MIC,"[1]; Epidermophyton floccosum, 1",1.56 µg/mL
same,MIC,"Microsporum canis 1; Microsporum canis, 1",12.5 µg/mL
same,MIC,Microsporum canis 2,6.12 µg/mL
same,MIC,[2],1.56 µg/mL
same,MIC,"Escherichia coli OMI 16; OMI16, Isosensitest agar",25 µg/mL
same,MIC,"Escherichia coli OMI 17; OMI17, Isosensitest agar",12.5 µg/mL
same,MIC,"[3]; Klebsiella pneumoniae, ATCC1003, 18 h",25 µg/mL
same,MIC,"Proteus vulgaris OMI 4; OMI4, Isosensitest agar",100 µg/mL
same,MIC,"[4]; OMI1, Isosensitest agar",> 200 µg/mL
same,MIC,"Sarcina lutea ATCC 9341; Micrococcus luteus, ATCC9341, Isosensitest agar",0.19 µg/mL
same,MIC,"Staphylococcus aureus 35; Staphylococcus aureus, 35, 18 h",6.25 µg/mL
same,MIC,"Staphylococcus aureus 38; Staphylococcus aureus, 38, 18 h",0.39 µg/mL
same,MIC,"[5]; Staphylococcus aureus, ATCC9144, 18 h",0.39 µg/mL
same,MIC,"[6]; Enterococcus faecalis, OMI1, Isosensitest agar",12.5 µg/mL
same,MIC,"[7]; Enterococcus faecalis, OMI2, Isosensitest agar",6.25 µg/mL
same,MIC,"[8]; Streptococcus pyogenes, 18 h",0.39 µg/mL
same,MIC,"Streptococcus pyogenes C; Streptococcus pyogenes, 18 h",0.39 µg/mL
same,presence / detectability of the compound over time,[9],may not be detected in significant amounts after the 6 ^th hour
